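96-well plates; 48 h exposure; 5 concentrations. Endpoints by linear interpolation between flanking doses. Not reached: highest tested concentration assigned. GI50: concentration for 50% inhibition of growth.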 Calls of active or inactive are those of the source. No stated cut-off is given here; in the data, active = GI50 up to about 1.1 µM and inactive = higher.

Seven molecules from ChEMBL document CHEMBL1201862, “PubChem BioAssay data set” (2004) can be followed below.

Some test systems named below: ACHN; CCRF-CEM; DLD-1; DMS-114; HCT-15; HOP-92; K562; KM12; M19-MEL; NCI-H226; SF-268; SK-MEL-2; SNB-78; DU-145; Hs-578T; MCF7; MDA-MB-231; NCI/ADR-RES; PC-3; T47D.
Holding throughout (assay): NCI tumour cell line growth inhibition, 48 h

As for `CCc1cccc(CC)c1NC(=O)C(=O)Cc1nc2ccccc2o1`, the GI50 with ACHN was > 100 µM (inactive); with CCRF-CEM, > 100 µM (inactive); in the experiment on DLD-1, > 100 µM (inactive); with DMS-114, > 100 µM (inactive); in the experiment on HCT-15 it was over 100 µM; with HOP-92 it was > 100 µM (inactive). Moreover, the GI50 in the experiment with K562, in the experiment with KM12, in the experiment with M19-MEL, with NCI-H226, in the experiment with SF-268 and with SK-MEL-2 was > 100 µM (inactive) in each case. In addition, the GI50 in the experiment on SNB-78 is > 100 µM (inactive).

As to `OCC(O)C(O)C(O)c1nnn[nH]1` (stereo not drawn), the GI50 with ACHN is > 100 µM (inactive); in the experiment with CCRF-CEM, > 100 µM (inactive); in the experiment on DLD-1, > 100 µM (inactive); in the experiment with DMS-114, > 100 µM (inactive); in the experiment on HCT-15, over 100 µM; with HOP-92 it was > 100 µM (inactive). In addition, the GI50 with K562 was > 100 µM (inactive); in the experiment on KM12 it was > 100 µM (inactive); in the experiment on M19-MEL it was > 100 µM (inactive); with NCI-H226 it was 34.8 µM (inactive); in the experiment on SF-268 it was > 100 µM (inactive); with SK-MEL-2, > 100 µM (inactive). In addition, the GI50 in the experiment with SNB-78 was > 100 µM (inactive).

For the molecule `C[n+]1c2ccccc2c(CNc2ccc(S(=O)(=O)N=C(N)N)cc2)c2ccccc21`, the GI50 in the experiment on ACHN is 6.95 µM (inactive); with CCRF-CEM, 1.45 µM (inactive); with DLD-1, 17.3 µM (inactive); with DMS-114, 2.65 µM (inactive); in the experiment with HCT-15, 10.2 µM; with HOP-92 it was 5.24 µM (inactive). For the same molecule, the GI50 in the experiment with K562 was 6.78 µM (inactive); in the experiment on KM12, 13.2 µM (inactive); in the experiment on M19-MEL, 14.5 µM (inactive); in the experiment on NCI-H226 it was 1.6 µM (inactive); in the experiment with SF-268, 7.06 µM (inactive); in the experiment on SK-MEL-2, 24.8 µM (inactive). For the same molecule, the GI50 in the experiment with SNB-78 was 19.9 µM (inactive).

Regarding `CC1CN1c1c(C(=O)/C=C/c2ccccc2)c(-c2ccccc2)nn(C)c1=O` (stereo not drawn), the GI50 in the experiment with ACHN is 17.4 µM (inactive); in the experiment on CCRF-CEM it was 13.4 µM (inactive); in the experiment with DLD-1 it was 15.2 µM (inactive); in the experiment on DMS-114 it was 23 µM (inactive); in the experiment with HCT-15, 14.1 µM; with HOP-92, 13.1 µM (inactive). The GI50 was 18.2 µM (inactive) in the experiment with K562; 20.8 µM (inactive) in the experiment with KM12; 17.3 µM (inactive) in the experiment with M19-MEL; 20.8 µM (inactive) in the experiment with NCI-H226; 27.9 µM (inactive) with SF-268; 16.3 µM (inactive) in the experiment on SK-MEL-2. The GI50 with SNB-78 is 18.2 µM (inactive).

Regarding `CCCCC(C(=O)CCC(=O)Nc1ccc(Cl)cc1)C(=O)C(C)C` (stereo not drawn), the GI50 is > 100 µM (inactive) with ACHN; > 100 µM (inactive) with CCRF-CEM; > 100 µM (inactive) in the experiment with DLD-1; > 100 µM (inactive) in the experiment on DMS-114; over 100 µM with HCT-15; > 100 µM (inactive) in the experiment with HOP-92. Moreover, the GI50 was 25.1 µM (inactive) with K562; > 100 µM (inactive) in the experiment with KM12; > 100 µM (inactive) in the experiment with M19-MEL; > 100 µM (inactive) in the experiment on NCI-H226; > 100 µM (inactive) with SF-268; > 100 µM (inactive) in the experiment with SK-MEL-2. The GI50 in the experiment with SNB-78 was > 100 µM (inactive).

Take `Clc1ccc(/C=C/c2csnn2)cc1`: the GI50 with ACHN was > 100 µM (inactive); with CCRF-CEM it was > 100 µM (inactive); in the experiment on DLD-1 it was > 100 µM (inactive); in the experiment with DMS-114 it was > 100 µM (inactive); with HCT-15, over 100 µM; in the experiment on HOP-92 it was 27.1 µM (inactive). Further, the GI50 in the experiment on K562, in the experiment with KM12, in the experiment on M19-MEL, with NCI-H226, in the experiment on SF-268 and in the experiment on SK-MEL-2 was > 100 µM (inactive) each time. Moreover, in the experiment with SNB-78, the GI50 was > 100 µM (inactive).

With `CC(=O)/C(C)=N/NC(=O)c1ccccc1O`, the GI50 with ACHN is > 10 µM (inactive); with CCRF-CEM, 23 µM (inactive); in the experiment with DLD-1 it was > 10 µM (inactive); with DMS-114, > 10 µM (inactive); in the experiment on DU-145, > 100 µM (inactive); in the experiment on HCT-15, 97.5 µM. In addition, the GI50 with HOP-92 is > 10 µM (inactive); in the experiment with Hs-578T, > 100 µM (inactive); in the experiment on K562 it was 37 µM (inactive); in the experiment with KM12, > 10 µM (inactive); with M19-MEL it was > 10 µM (inactive); in the experiment on MCF7 it was > 100 µM (inactive). Further, the GI50 in the experiment on MDA-MB-231 was > 100 µM (inactive); in the experiment on NCI-H226 it was > 10 µM (inactive); in the experiment with NCI/ADR-RES, > 100 µM (inactive); with PC-3 it was > 100 µM (inactive); in the experiment with SF-268, > 10 µM (inactive); in the experiment with SK-MEL-2 it was > 10 µM (inactive). Moreover, the GI50 with SNB-78 was > 10 µM (inactive); with T47D it was > 100 µM (inactive).
